Each compound was assayed against T1, α5β3γ2 GABAA receptors (Ltk cell membranes) (Homo sapiens, UniProt P18507+P31644) (assay: Binding activity of test compounds on GABAAR: inhibition of [3H]Ro15-1788 binding). Conditions: not given.
T1 construct: membranes
Procedure: Tissue culture and Membrane Preparation: The binding was performed on Ltk cells stably expressing GABAA receptors: α1β1γ2, α2β3γ2, α3β3γ2 and α5β3γ2 (provided by Merck Co., NJ, USA). Cells were seeded in 100 mm culture plates in DMEM/F12 medium containing 10% serum and antibiotics in 5% CO2 and allowed to grow for 1-2 days. GABAAR expression was then induced by dexamethasone as follows: 0.5 μM for 1 day for α5 containing and 2μM for 3 days for α1, α2 and α3 containing GABAARs. After induction, cells were collected by scraping into Dulbecco's Phosphate buffered saline (DPBS, pH 7.4, Invitrogen, Carlsbad, Calif., USA) and centrifuged at 150×g for 10 min. The pellet was washed twice by re-suspension and centrifugation. The cell pellets from at least 5 different preps were combined, suspended in the binding assay buffer (50 mM KH2P4; 1 mM EDTA; 0.2 M KCl, pH 7.4) and membranes prepared by sonication (3-5 times, 30 sec) using Branson Sonifier 150 (G.Heinmann, Germany). Protein content was determined using BCA assay (Bio-Rad Labs, Reinach, Switzerland) with Bovine Serum Albumin (Sigma Aldrich, St. Louis, Mo., USA) as the standard. Aliquots were prepared and stored at −20° C. for further use in binding assays.
Ligand Binding: Saturation binding curves were obtained by incubating membranes with increasing concentrations (0.01-8 nM) of [^3H]Ro15-1788 (Flumazepil, 75-85 Ci/mmol, PerkinElmer, MA, USA), with nonspecific binding measured in the presence of 10 μM diazepam.
All binding assays were performed for 1 h at 4° C. in assay buffer. The total assay volume was 0.5 ml containing 0.2 mg/ml protein for α5 and 0.4 mg/ml for α1, α2, and α3 containing GABAAR membranes. Incubations were terminated by filtration through GF/B filters using a 24-Cell Harvestor (Brandel, Gaithersburg, Md., USA) followed by 3 washes with ice-cold assay buffer. Filters were transferred to scintillation vials, 5 ml scintillation liquid added, vortex-mixed and kept in dark. Next day, radioactivity was obtained using a scintillation counter (Beckman Coulter, Brea, Calif., USA). All assays were performed in triplicate.
Data Analyses: Saturation and inhibition curves were obtained using GraphPad Prism software (GraphPad Software, Inc., CA, USA).

T1 sequence (P31644 32-462): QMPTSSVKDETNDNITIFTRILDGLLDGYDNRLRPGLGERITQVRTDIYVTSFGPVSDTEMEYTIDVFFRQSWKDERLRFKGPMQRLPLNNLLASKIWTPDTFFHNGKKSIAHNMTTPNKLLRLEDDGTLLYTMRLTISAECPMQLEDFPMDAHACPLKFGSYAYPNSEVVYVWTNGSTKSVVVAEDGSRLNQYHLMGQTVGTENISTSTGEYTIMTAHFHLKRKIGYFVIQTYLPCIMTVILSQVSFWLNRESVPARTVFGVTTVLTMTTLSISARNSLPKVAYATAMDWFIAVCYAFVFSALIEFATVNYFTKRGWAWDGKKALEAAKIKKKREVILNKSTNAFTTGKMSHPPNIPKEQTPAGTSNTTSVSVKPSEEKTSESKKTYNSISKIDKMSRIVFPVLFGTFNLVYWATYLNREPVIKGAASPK
T1 sequence (P28472 26-473 partner): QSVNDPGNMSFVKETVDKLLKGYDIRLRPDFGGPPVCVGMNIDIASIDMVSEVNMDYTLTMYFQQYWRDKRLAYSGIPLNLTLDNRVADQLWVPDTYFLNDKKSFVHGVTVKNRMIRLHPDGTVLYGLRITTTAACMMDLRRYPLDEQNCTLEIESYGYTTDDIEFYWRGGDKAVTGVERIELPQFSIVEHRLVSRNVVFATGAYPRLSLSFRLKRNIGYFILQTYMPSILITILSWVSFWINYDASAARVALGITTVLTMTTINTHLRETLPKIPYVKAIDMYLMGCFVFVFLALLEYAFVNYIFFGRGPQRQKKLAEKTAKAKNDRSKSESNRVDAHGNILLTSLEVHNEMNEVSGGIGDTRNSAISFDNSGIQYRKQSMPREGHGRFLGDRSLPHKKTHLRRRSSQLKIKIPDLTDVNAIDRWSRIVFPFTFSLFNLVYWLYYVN
T1 sequence (P18507 40-475): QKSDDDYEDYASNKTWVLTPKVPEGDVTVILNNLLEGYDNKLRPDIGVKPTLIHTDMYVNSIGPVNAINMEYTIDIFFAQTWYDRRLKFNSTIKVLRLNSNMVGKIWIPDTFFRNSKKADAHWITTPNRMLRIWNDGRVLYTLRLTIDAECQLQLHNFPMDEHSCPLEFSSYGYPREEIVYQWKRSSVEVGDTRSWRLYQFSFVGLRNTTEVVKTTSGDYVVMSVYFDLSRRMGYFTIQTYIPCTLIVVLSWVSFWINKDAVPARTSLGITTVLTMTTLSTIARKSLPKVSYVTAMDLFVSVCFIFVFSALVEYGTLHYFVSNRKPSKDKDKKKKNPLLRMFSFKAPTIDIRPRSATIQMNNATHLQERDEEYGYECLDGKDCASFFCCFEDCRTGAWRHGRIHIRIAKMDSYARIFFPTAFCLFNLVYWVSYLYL

Compound | Ki [nM]
CC(C)OCc1nnc2n1Cc1c(/C=C/c3ccc(F)cc3)ncn1-c1ccc(Cl)cc1-2 [Compound 447] | > 1000
COCc1nnc2n1Cc1c(C3=NCC(C)(C)CO3)ncn1-c1ccc(Cl)cc1-2 [Compound 239] | > 1000

Same assay, conditions: GABA α5 Binding Ki Values, inhibition of [3H]Ro15-1788 binding; reported as ranges

Compound | Ki [nM]
COc1ccc2c(c1)-c1nnc(COc3ccccc3)n1Cc1c(-c3noc(C(C)C)n3)ncn1-2 [Compound 171] | < 100
COc1ccc2c(c1)-n1nnc(COc3cccc(F)c3)c1Cc1c(-c3noc(C)n3)ncn1-2 [Compound 168] | < 100
Cc1noc(-c2ncn3c2Cn2c(COc4ccccc4)nnc2-c2cc(F)ccc2-3)n1 [Compound 138] | 100 to 1000
Clc1ccc2c(c1)-n1nncc1Cc1c(C#Cc3cccnc3)ncn1-2 [Compound 402] | < 100
COc1ccc2c(c1)-n1nncc1Cc1c(C3=N[C@@H](c4cccc5ccccc45)CO3)ncn1-2 [Compound 370] | 100 to 1000
COc1ccc2c(c1)-n1nnc(Cc3ccccc3Cl)c1Cc1c(C#N)ncn1-2 [Compound 208] | < 100
COc1ccc2c(c1)-c1nnc(COc3ccccc3)n1Cc1c(Br)ncn1-2 [Compound 232] | < 100
CCOCc1nnc2n1Cc1c(C3=NC(c4ccccc4)CO3)ncn1-c1ccc(Cl)cc1-2 (stereo not drawn) [Compound 260] | < 100
CCOCc1ncn2c1Cc1c(COCC)nnn1-c1ccccc1-2 [Compound 134] | 100 to 1000
COc1ccc2c(c1)-c1nnc(COCc3ccccc3)n1Cc1c(-c3noc(C)n3)ncn1-2 [Compound 165] | < 100
CC(C)c1nc(-c2ncn3c2Cc2c(Cc4ccc(F)cc4)nnn2-c2ccc(F)cc2-3)no1 [Compound 231] | > 1000
COc1ccc2c(c1)-n1nncc1Cc1c(C#Cc3ccccc3C)ncn1-2 [Compound 405] | < 100
Cc1cc(-c2ncn3c2Cn2c(COCC(F)(F)F)nnc2-c2cc(Cl)ccc2-3)on1 [Compound 303] | 100 to 1000
CC(C)OCc1nnc2n1Cc1c(C3=N[C@@H](c4ccc(F)cc4)CO3)ncn1-c1ccc(Cl)cc1-2 [Compound 326] | < 100
Cc1nnn2c1Cc1c(-c3noc(C(C)C)n3)ncn1-c1ccccc1-2 [Compound 133] | < 100
COc1ccc2c(c1)-n1nncc1Cc1c(C3=N[C@@H](c4cc(F)ccc4F)CO3)ncn1-2 [Compound 369] | < 100
C#Cc1ncn2c1C(Cc1ccccc1)c1cnnn1-c1cc(OC)ccc1-2 (stereo not drawn) [Compound 449] | > 1000
Cc1cc(-c2ncn3c2Cn2c(COC(C)C)nnc2-c2cc(Cl)ccc2-3)on1 [Compound 281] | 100 to 1000
COc1ccc2c(c1)-c1nnc(COc3cccc(F)c3)n1Cc1c(-c3noc(C(C)C)n3)ncn1-2 [Compound 179] | < 100
Cc1cccc(C)c1OCc1nnc2n1Cc1c(-c3noc(C(C)C)n3)ncn1-c1ccc(F)cc1-2 [Compound 190] | < 100
CCOC(=O)c1ncn2c1Cc1c(COc3ccc(F)cc3)nnn1-c1cc(OC)ccc1-2 [Compound 10] | < 100
Cc1cc(-c2ncn3c2Cc2c(C)nnn2-c2cc(F)ccc2-3)ccn1 [Compound 154] | > 1000

Compound | Ki [nM]
C#Cc1ncn2c1Cn1c(COC)nnc1-c1cc(Cl)ccc1-2 [Compound 256] | < 100
COc1ccc2c(c1)-n1nncc1Cc1c(C#CCc3cccc(OC(F)(F)F)c3)ncn1-2 [Compound 418] | < 100
COc1ccc2c(c1)-n1nnc(Cc3cccc(Cl)c3)c1Cc1c(C#N)ncn1-2 [Compound 209] | < 100
CCC(=O)c1ncn2c1Cc1c(C)nnn1-c1ccccc1-2 [Compound 125] | 100 to 1000
CCOC(=O)c1ncn2c1Cc1c(C)nnn1-c1ccccc1-2 [Compound 3] | < 100
COc1ccc2c(c1)-n1nncc1Cc1c(C3=N[C@@H](C(C)C)CO3)ncn1-2 [Compound 382] | 100 to 1000
COc1ccc2c(c1)-n1nnc(CN3CCC(c4ccccc4)CC3)c1Cc1c(C#N)ncn1-2 [Compound 253] | > 1000
CCOC(=O)c1ncn2c1Cn1c(Br)nnc1-c1cc(OC)ccc1-2 [Compound 106] | < 100
COc1ccc2c(c1)-c1nnc(COc3ccccc3)n1Cc1c(C(=O)OCC(C)(C)C)ncn1-2 [Compound 119] | 100 to 1000
CC(C)[C@H]1COC(c2ncn3c2Cc2cnnn2-c2cc(Cl)ccc2-3)=N1 [Compound 363] | 100 to 1000
CCc1nc(-c2ncn3c2Cc2c(C)nnn2-c2cc(F)ccc2-3)no1 [Compound 155] | < 100
CCN(CC)Cc1nnn2c1Cc1c(C#N)ncn1-c1ccc(OC)cc1-2 [Compound 252] | > 1000
COCc1nnc2n1Cc1c(-c3noc(C(C)C)n3)ncn1-c1ccc(F)cc1-2 [Compound 186] | < 100
COc1ccc2c(c1)-n1nnc(C(=O)N3CCCC3)c1Cc1c(Br)ncn1-2 [Compound 248] | 100 to 1000
COc1ccc2c(c1)-n1nnc(-c3ccccc3)c1Cc1c(-c3nc(C(C)C)no3)ncn1-2 [Compound 272] | > 1000
CC(C)C#Cc1ccc2c(c1)-n1nncc1Cc1c(Br)ncn1-2 [Compound 454] | < 100
COc1ccc2c(c1)-n1nnc(C)c1Cc1c(-c3nc(C(C)C)no3)ncn1-2 [Compound 277] | < 100
Cc1cnc(-c2ncn3c2Cc2c(C)nnn2-c2cc(F)ccc2-3)nc1 [Compound 144] | 100 to 1000
COCc1nnc2n1Cc1c(-c3nc(C)no3)ncn1-c1ccc(C#N)cc1-2 [Compound 465] | < 100
Cc1nnn2c1Cc1c(-c3cnn(C)c3)ncn1-c1ccc(F)cc1-2 [Compound 152] | > 1000
COc1ccc2c(c1)-n1nncc1Cc1c(-c3nc(-c4ccc(F)c(C(F)(F)F)c4)co3)ncn1-2 [Compound 392] | 100 to 1000
C=Cc1ncn2c1Cc1c(Cc3ccccc3)nnn1-c1cc(OC)ccc1-2 [Compound 220] | 100 to 1000

Compound | Ki [nM]
CCOCc1nnc2n1Cc1c(-c3nc(C(C)C)no3)ncn1-c1ccc(Cl)cc1-2 [Compound 254] | < 100
C#Cc1ncn2c1Cn1c(COCC)nnc1-c1cc(Cl)ccc1-2 [Compound 261] | < 100
COCc1nnc2n1Cc1c(C3=N[C@@H](c4cccc5ccccc45)CO3)ncn1-c1ccc(Cl)cc1-2 [Compound 338] | < 100
COCc1nnc2n1Cc1c(C3=N[C@@H](c4ccc(Cl)cc4)CO3)ncn1-c1ccc(Cl)cc1-2 [Compound 334] | < 100
Cc1nnn2c1Cc1c(C(=O)OCC(C)(C)C)ncn1-c1ccc(F)cc1-2 [Compound 113] | 100 to 1000
COc1ccc2c(c1)-n1nnc(COc3cccc(Br)c3)c1Cc1c(C#N)ncn1-2 [Compound 225] | < 100
O=C(C#Cc1ncn2c1Cc1cnnn1-c1cc(Cl)ccc1-2)c1ccccc1 [Compound 448] | < 100
CCOC(=O)c1ncn2c1Cc1c(Cc3ccc(Cl)cc3)nnn1-c1ccccc1-2 [Compound 47] | < 100
COc1ccc2c(c1)-n1nnc(COc3ccc(F)cc3)c1Cc1c(-c3noc(C)n3)ncn1-2 [Compound 180] | < 100
C#Cc1ncn2c1C(Cc1cccc(F)c1)(Cc1cccc(F)c1)c1cnnn1-c1cc(OC)ccc1-2 [Compound 450] | > 1000
COc1ccc2c(c1)-n1nncc1Cc1c(C3=N[C@H](C)CO3)ncn1-2 [Compound 291] | < 100
COc1ccc2c(c1)-c1nnc(COc3ccccc3F)n1Cc1c(-c3noc(C(C)C)n3)ncn1-2 [Compound 174] | < 100
COc1ccc2c(c1)-c1nnc(COc3cccnc3)n1Cc1c(-c3noc(C(C)C)n3)ncn1-2 [Compound 176] | < 100
C#Cc1ccc2c(c1)-c1nnc(COC)n1Cc1c(C3=N[C@H](C(C)C)CO3)ncn1-2 [Compound 284] | 100 to 1000
COCc1nnc2n1Cc1c(-c3nc(-c4ccc(F)cc4)co3)ncn1-c1ccc(Cl)cc1-2 [Compound 324] | < 100
CCOC(=O)c1ncn2c1Cc1c(Cc3ccc(C)cc3)nnn1-c1cc(F)ccc1-2 [Compound 44] | < 100
CNC(=O)c1nnn2c1Cc1c(Br)ncn1-c1ccc(OC)cc1-2 [Compound 247] | 100 to 1000
FC(F)(F)CC#Cc1ncn2c1Cc1cnnn1-c1cc(Cl)ccc1-2 [Compound 398] | < 100
COCc1nnc2n1Cc1c(C3=N[C@@H](c4ccccc4F)CO3)ncn1-c1ccc(Cl)cc1-2 [Compound 319] | < 100
FC(F)c1ncn2c1Cn1c(COc3ccccc3)nnc1-c1cc(Cl)ccc1-2 [Compound 200] | 100 to 1000
CCOC(=O)c1ncn2c1Cn1c(COC)nnc1-c1cc(OC)ccc1-2 [Compound 103] | < 100
COc1ccc2c(c1)-c1nnc(COC3CCCC3)n1Cc1c(-c3noc(C(C)C)n3)ncn1-2 [Compound 178] | < 100

Same assay, conditions: inhibition of [3H]Ro15-1788 binding; reported as ranges

Compound | Ki [nM]
COCc1nnc2n1Cc1c(COc3cccc(F)c3)ncn1-c1ccc(Cl)cc1-2 [Compound 434] | > 1000

From US20180170941A1 (priority 2016, published 2018)
